Results as given in publication PMC9867837 (Cancer letters, 2022).
Read-outs that look alike come from different tables or passages of the source.

Experiments:
MCF-10A cells = assay: CyQuant viable cell number assay, MCF-10A; assay type: cell-based, human; settings: 72 h, read-out: IC50 viable cell numbers, MCF-10A
Experimental: (§1) CyQuant assay was performed to evaluate compounds as previously reported. Details are presented in Supplementary Information, “Methods”. […]
(§2) 1.2.6. Cell viability assays
(§3) CyQuant assay was performed to evaluate compounds as previously reported [1 -3] . Briefly, cells (5 x 10^3 per well, 100 µl) in culture in 96-well plates were treated once with 0 -10 µM concentrations of H120, H105, […]
(§4) concentration of H182 for 6 h and then treated with 0- 100 nM docetaxel or 0-20 µM cisplatin for a total of 72 h. Viable cell numbers were assessed by a CyQuant cell proliferation kit according to the manufacturer’s instructions (Thermo/Life Technologies Corp, Carlsbad, CA). Viable cell numbers were normalized to that of DMSO (control)-treated samples. […]

[1] = target: T1, Stat1:Stat1 DNA-binding activity (Mus musculus, UniProt P42225); assay: EMSA of Stat1:Stat1 DNA-binding activity in nuclear extracts of EGF-stimulated NIH3T3/hEGFR; assay type: biochemical; settings: Fig. 1C, 30 min
T1 construct: endogenous in cells; host or cells: EGF-stimulated NIH3T3/hEGFR fibroblasts (nuclear extract)
T1 sequence (P42225 2-749 limits assumed): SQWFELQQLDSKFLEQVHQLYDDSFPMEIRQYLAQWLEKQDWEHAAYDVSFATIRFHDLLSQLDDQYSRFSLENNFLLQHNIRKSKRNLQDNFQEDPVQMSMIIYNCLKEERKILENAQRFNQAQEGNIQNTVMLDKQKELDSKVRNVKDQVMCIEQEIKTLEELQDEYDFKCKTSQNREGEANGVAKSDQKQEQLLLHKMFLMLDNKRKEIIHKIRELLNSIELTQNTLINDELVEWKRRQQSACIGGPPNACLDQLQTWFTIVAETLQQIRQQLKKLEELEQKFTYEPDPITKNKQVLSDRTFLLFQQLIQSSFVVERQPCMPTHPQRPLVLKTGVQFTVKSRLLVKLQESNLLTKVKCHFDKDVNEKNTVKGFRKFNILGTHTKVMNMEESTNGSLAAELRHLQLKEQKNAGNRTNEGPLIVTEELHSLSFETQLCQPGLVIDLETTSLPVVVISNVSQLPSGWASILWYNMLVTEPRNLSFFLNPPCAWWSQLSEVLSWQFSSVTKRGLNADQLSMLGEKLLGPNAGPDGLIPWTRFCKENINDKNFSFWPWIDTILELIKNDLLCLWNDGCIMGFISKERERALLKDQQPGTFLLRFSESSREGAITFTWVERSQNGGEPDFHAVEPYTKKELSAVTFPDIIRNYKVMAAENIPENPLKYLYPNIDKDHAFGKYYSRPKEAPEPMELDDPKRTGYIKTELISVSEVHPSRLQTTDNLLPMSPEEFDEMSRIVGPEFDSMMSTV
Experimental: These studies were carried out as previously described using the ^32P-labeled oligonucleotide probes, hSIE (high affinity sis-inducible element from the c-fos gene, m67 variant, 5^′-[…]) that binds Stat1 and Stat3 [11, 12] and the mammary gland factor element (MGFe) from the bovine β–casein gene promoter (sense strand, 5^′-[…]) that binds Stat5 and Stat1 [11, 12]. Details are presented in Supplementary Information, “Methods”. […]
min, prior to incubation with the radiolabeled probe for 30 min at 30 °C and subjecting to EMSA analysis.
In another case, the nuclear extract was pre-incubated with the radiolabeled probe for 30 min at 30 °C prior to incubation with increasing concentration of H182 at room temperature for 30 min and subjecting to EMSA analysis. Bands corresponding to Stats DNA- binding activities were scanned and quantified using ImageJ and plotted as a percentage of control (vehicle) against the concentration of the inhibitor, from which the IC50 values were derived .

MDA-MB-468 cells = assay: CyQuant viable cell number assay, MDA-MB-468; assay type: cell-based, human; settings: read-out: IC50 viable cell numbers, MDA-MB-468
Experimental: as §1, §2, §3, §4

[2] = first Stat1:Stat1 value listed (hSIE probe)
[3] = second Stat1:Stat1 value listed (MGFe probe)

Row | SMILES | IC50 (MCF-10A cells) [µM] | IC50 (MCF-10A cells; Homo sapiens, MCF-10A) [µM] | IC50 [1, 2] [µM] | IC50 [1, 3] [µM] | IC50 (MDA-MB-468 cells; 72 h) [µM] | IC50 (MDA-MB-468 cells; Homo sapiens, MDA-MB-468, 72 h) [µM]
1 | O=C([C@H]1CCN1S(=O)(=O)c1c(F)c(F)c(F)c(F)c1F)N(Cc1ccc(C2CCCCC2)cn1)c1ccc2c(=O)[nH]ncc2c1 [Compound H182] | 3.8 | 3.8 to 4 | 16.8 | 17.8 | 1.1 | 1
2 | O=C([C@H]1CCN1S(=O)(=O)c1c(F)c(F)c(F)c(F)c1F)N(Cc1ccc(C2CCCCC2)cn1)c1ccc2c(=O)[nH]cnc2c1 [Compound H172] | 4 | 3.8 to 4 | > 20 | > 20 |  | 1.5
